According to ChEMBL document CHEMBL3352084, “Bioactive compounds from the insect Aspongopus chinensis” (Bioorg Med Chem Lett, 2014):
Activity calls are given as the source filed them. The calls are words filed in the database; no cut-off is given here.

What was measured:
[1] = test system: Rattus norvegicus; experiment: Inhibition of high glucose-induced IL6 production in rat renal mesangial cells dosed for 1 hr before 30 mM D-glucose stimulation for 24 hrs by ELISA; type: functional
[2] = test system: Rattus norvegicus; experiment: Inhibition of high glucose-induced collagen 4 production in rat renal mesangial cells dosed for 1 hr before 30 mM D-glucose stimulation for 24 hrs by ELISA; type: functional
[3] = test system: Rattus norvegicus; experiment: Inhibition of high glucose-induced fibronectin production in rat renal mesangial cells dosed for 1 hr before 30 mM D-glucose stimulation for 24 hrs by ELISA; type: functional
[4] = molecular target: Prostaglandin G/H synthase 2 (Homo sapiens, UniProt P35354); experiment: Inhibition of human recombinant COX2 pre-incubated for 15 mins before arachidonic acid addition by fluorescence micro plate reader method
Sequence of Prostaglandin G/H synthase 2 (P35354 whole entry, looked up): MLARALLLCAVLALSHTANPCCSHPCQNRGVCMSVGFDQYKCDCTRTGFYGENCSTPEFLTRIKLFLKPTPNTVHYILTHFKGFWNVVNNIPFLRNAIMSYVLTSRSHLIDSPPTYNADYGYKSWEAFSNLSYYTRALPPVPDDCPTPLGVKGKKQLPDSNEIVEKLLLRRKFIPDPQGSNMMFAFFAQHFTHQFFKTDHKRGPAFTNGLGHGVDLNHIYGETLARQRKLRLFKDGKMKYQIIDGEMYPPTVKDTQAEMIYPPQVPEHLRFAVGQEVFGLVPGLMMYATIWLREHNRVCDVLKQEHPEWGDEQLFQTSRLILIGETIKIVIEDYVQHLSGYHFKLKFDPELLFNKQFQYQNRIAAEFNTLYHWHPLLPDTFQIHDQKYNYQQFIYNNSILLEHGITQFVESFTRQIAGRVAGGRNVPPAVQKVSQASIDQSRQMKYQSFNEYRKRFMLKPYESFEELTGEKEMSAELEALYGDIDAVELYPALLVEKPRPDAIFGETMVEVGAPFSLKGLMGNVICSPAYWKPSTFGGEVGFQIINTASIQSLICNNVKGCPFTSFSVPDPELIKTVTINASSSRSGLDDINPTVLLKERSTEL

[5] = Retention time of the compound by […] method; type: physicochemical

Structure (SMILES)	inhibition [1]	inhibition [2]	inhibition [3]	IC50 [4]	Retention_time [5]
CC(=O)N/C=C\c1ccc2c(c1)OC(NC(C)=O)C(c1ccc(O)c(O)c1)O2 (configuration not stated)	Active	Active	Active		
CCc1nc(C)ccc1O	Active	Active	Active		
CC(C)C[C@@H]1NC(=O)[C@H](Cc2c[nH]c3ccccc23)NC1=O	Active	Active	Active		
CC(=O)/C=C/c1ccc(O)c(O)c1				22.2 µM	
CC(=O)NC[C@@H](OC[C@H](O)CO)c1ccc(O)c(O)c1				117 µM	
CC(=O)N/C=C\c1ccc2c(c1)OC(c1ccc(O)c(O)c1)C(NC(C)=O)O2 (configuration not stated)	Active	Active	Active	6.5 µM	
C/C(=C/CCC(C)c1cc(O[C@@H]2O[C@H](CO)[C@@H](O)[C@H](O)[C@H]2O)c(O)cc1C)C(=O)O (some centres not stated)					25.461 min
CC(=O)NCCc1ccc(O)c(O)c1				18.9 µM	
